Data from PubChem BioAssay AID1963873 (Molecular Pharmacology Branch, DTP, NCI, 2024).
Where “and” joins values, the source holds several entries; their conditions need not be identical. Identical values can stand only once.

System: 276233-004-R-J1-PDC KRAS spheroids with HUVEC/MSC, viability
Assay: Anticancer human tumor 276233-004-R-J1-PDC patient-derived colon adenocarcinoma cell line growth inhibition [KRAS2]
Details: for viability, T/C: stronger effect = lower value
From the text: Multicellular complex tumor spheroid response to RAS pathway inhibitors in combination with a targeted agents in patient-derived cell lines with oncogenic KRAS variants from multiple cancer types
A high-throughput screen of multi-cell type tumor spheroids was designed to identify active combinations of targeted small molecules and KRAS pathway inhibitors. Complex spheroids include a stromal component modeled by human endothelial cells (HUVEC) and fibroblasts modeled by human mesenchymal stem cells (MSCs). The concentration ranges selected for each drug and investigational agent were based upon clinically achievable concentrations if the clinical Cmax of the agent was known.
Compounds. The drugs and investigational agents: BI-3406 (NSC825286), BAY-293 (NSC824723), batoprotafib (TNO155; NSC825523), sotorasib (AMG 510; NSC818433), MRTX1257 (NSC819558), elimusertib (BAY 1895344; NSC800525), molibresib (GSK525762; NSC774829), temuterkib (LY3214996; NSC803410), venetoclax (NSC766270), alisertib (NSC759677), olaparib (NSC753686), talazoparib (NSC767125), erdafitinib (NSC781556), ipatasertib (NSC767898), cabozantinib (NSC761068), nintedanib (NSC756659), abemaciclib (NSC768073), docetaxel (NSC628503), trametinib (NSC758246), and sapanisertib (NSC764658) were obtained from the National Cancer Institute (NCI) Developmental Therapeutics Program Chemical Repository. The FDA-approved anticancer drug set is available from the Developmental Therapeutics Program. […] The stock solutions were prepared in dimethyl sulfoxide (DMSO, Sigma-Aldrich, St. Louis, MO, cat. D2650) at 800-fold the tested concentration and stored at -70 degrees C prior to their use. All drugs and investigational agents were tested over a range starting from a high concentration at or near the clinical Cmax and decreasing in half-log increments. If the clinical Cmax for an agent had not been determined, the highest concentration tested was 10 microM.
Cell Culture. All cells were maintained in an incubator at 37 degrees C and 5% CO2 with 95% humidity. The PDC lines were cultured according to standard operating procedures established by the NCI PDMR (https://pdmr.cancer.gov/sops/default.htm). Briefly, all PDCs were thawed and cultured in Matrigel-coated flasks prepared with a working solution of 1X Ham's F-12 nutrient mix, without supplementation (Invitrogen, Waltham, MA, cat. 11765054), 100 U/mL penicillin-streptomycin (Invitrogen, cat. 15140122), and 2.5% Matrigel (Corning Inc., Corning, NY, cat. 354248) for the first three passages. All PDCs were cultured in complete DMEM/F-12 media containing advanced DMEM/F-12 (Invitrogen, cat. 12634028), 4.9% defined fetal bovine serum, heat inactivated (HyClone Laboratories Inc., Logan, UT, cat. SH30070.03HI), 389 ng/mL hydrocortisone (Sigma-Aldrich, cat. H4001), 9.7 ng/mL human EGF recombinant protein (Invitrogen, cat. PHG0313), 23.4 microg/mL adenine (Sigma-Aldrich, cat. A2786), 97.3 U/mL penicillin-streptomycin (Invitrogen, cat. 15140122), 1.9 mM L-glutamine (Invitrogen, cat. 25030081), and 9.7 microM Y-27632 dihydrochloride (Tocris Bioscience, Bristol, United Kingdom, cat. 1254). The PDCs were cultured in complete DMEM/F12 media without 9.7 microM Y-27632 dihydrochloride for at least two passages prior to the screen. The established cell line HOP-62 was cultured in RPMI 1640 medium, HEPES (Invitrogen, cat. 22400105) with 10% defined fetal bovine serum (HyClone Laboratories Inc., cat. SH30070.03) and 2 mM L-glutamine (Invitrogen, cat. 25030081). The pooled donor HUVEC were cultured in endothelial cell growth medium 2 (PromoCell, Heidelberg, Germany, cat. C-22011) and the hMSC were cultured in mesenchymal stem cell growth medium 2 (PromoCell, cat. C-28009). For all experiments, HUVEC and hMSC were used at passages </=5, while the malignant cell lines were used at passages </=15. […]

[1] = curve of first compound, second compound 0.1 µM
[2] = curve of first compound, second compound 0.316 µM
[3] = curve of first compound, second compound 1 µM
[4] = curve of first compound, second compound 3.16 µM
[5] = curve of first compound, second compound 10 µM
[6] = second compound 0.1 µM, first compound 0.0316 µM
[7] = second compound 0.1 µM, first compound 0.1 µM
[8] = second compound 0.1 µM, first compound 0.316 µM
[9] = second compound 0.1 µM, first compound 1 µM
[10] = second compound 0.1 µM, first compound 3.16 µM
[11] = second compound 0.1 µM, first compound 10 µM
[12] = second compound 0.316 µM, first compound 0.0316 µM
[13] = second compound 0.316 µM, first compound 0.1 µM
[14] = second compound 0.316 µM, first compound 0.316 µM
[15] = second compound 0.316 µM, first compound 1 µM
[16] = second compound 0.316 µM, first compound 3.16 µM
[17] = second compound 0.316 µM, first compound 10 µM
[18] = second compound 1 µM, first compound 0.0316 µM
[19] = second compound 1 µM, first compound 0.1 µM
[20] = second compound 1 µM, first compound 0.316 µM
[21] = second compound 1 µM, first compound 1 µM
[22] = second compound 1 µM, first compound 3.16 µM
[23] = second compound 1 µM, first compound 10 µM
[24] = second compound 3.16 µM, first compound 0.0316 µM
[25] = second compound 3.16 µM, first compound 0.1 µM
[26] = second compound 3.16 µM, first compound 0.316 µM
[27] = second compound 3.16 µM, first compound 1 µM
[28] = second compound 3.16 µM, first compound 3.16 µM
[29] = second compound 3.16 µM, first compound 10 µM
[30] = second compound 10 µM, first compound 0.0316 µM
[31] = second compound 10 µM, first compound 0.1 µM
[32] = second compound 10 µM, first compound 0.316 µM
[33] = second compound 10 µM, first compound 1 µM
[34] = second compound 10 µM, first compound 3.16 µM
[35] = second compound 10 µM, first compound 10 µM
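Further: cells exposed to agents for seven days before viability read.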
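Wherever viability, T/C is given: 100% = DMSO vehicle control wells and lower values mean fewer viable cells.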

Row | SMILES | IC50 [1] | IC50 [2] | IC50 [3] | IC50 [4] | IC50 [5] | viability, T/C [6] | viability, T/C [7] | viability, T/C [8] | viability, T/C [9] | viability, T/C [10] | viability, T/C [11] | viability, T/C [12] | viability, T/C [13] | viability, T/C [14] | viability, T/C [15] | viability, T/C [16] | viability, T/C [17] | viability, T/C [18] | viability, T/C [19] | viability, T/C [20] | other results
1 | O=C(c1cc(Cc2n[nH]c(=O)c3ccccc23)ccc1F)N1CCN(C(=O)C2CC2)CC1 + C=CC(=O)N1CCN(c2nc(=O)n(-c3c(C)ccnc3C(C)C)c3nc(-c4c(O)cccc4F)c(F)cc23)C(C)C1 | > 10 µM | > 10 µM | > 10 µM | > 10 µM | > 10 µM | 83.6% | 96% | 78.6% | 110% | 82.6% | 71.8% | 103% | 103% | 108% | 99% | 105% | 87.9% | 121% | 105% | 98.7% | viability, T/C [21]: 82.9%; viability, T/C [22]: 98.9%; viability, T/C [23]: 99.4%; viability, T/C [24]: 86.4%; viability, T/C [25]: 98.1%; viability, T/C [26]: 82.5%; viability, T/C [27]: 103%; viability, T/C [28]: 85.2%; viability, T/C [29]: 89.8%; viability, T/C [30]: 84.1%; viability, T/C [31]: 83.5%; viability, T/C [32]: 83.2%; viability, T/C [33]: 73.5%; viability, T/C [34]: 78.2%; viability, T/C [35]: 77.8%
2 | COC(=O)c1ccc2c(C(=Nc3ccc(N(C)C(=O)CN4CCN(C)CC4)cc3)c3ccccc3)c(O)[nH]c2c1 + CC1OCC2(CCN(c3cnc(Sc4ccnc(N)c4Cl)c(N)n3)CC2)C1N | > 10 µM | > 10 µM | 1.18 µM | 0.0332 µM | < 0.0316 µM | 87.3% | 73.7% | 68.5% | 64.6% | 65.6% | 56.2% | 80% | 63.8% | 59.2% | 64.7% | 46.1% | 70.7% | 67.8% | 61.1% | 54.3% | viability, T/C [21]: 55.1%; viability, T/C [22]: 42.3%; viability, T/C [23]: 42.1%; viability, T/C [24]: 49.8%; viability, T/C [25]: 47.6%; viability, T/C [26]: 40.6%; viability, T/C [27]: 41.1%; viability, T/C [28]: 40%; viability, T/C [29]: 37.3%; viability, T/C [30]: 44.9%; viability, T/C [31]: 49.5%; viability, T/C [32]: 42.6%; viability, T/C [33]: 48%; viability, T/C [34]: 36.3%; viability, T/C [35]: 37.9%
3 | O=C(c1cc(Cc2n[nH]c(=O)c3ccccc23)ccc1F)N1CCN(C(=O)C2CC2)CC1 |  |  |  |  |  |  |  |  |  |  |  |  |  |  |  |  |  |  |  |  | viability, T/C (compound 0.1 µM): 91.9% [middle of 5 runs]; viability, T/C (compound 0.316 µM): 84.4% [middle of 5 runs]; viability, T/C (compound 1 µM): 89.5% [middle of 5 runs]; IC50 (curve of compound): > 10 µM
4 | CC1COCCN1c1cc(-c2ccnn2C)c2ccnc(-c3ccn[nH]3)c2n1 (configuration not stated) |  |  |  |  |  |  |  |  |  |  |  |  |  |  |  |  |  |  |  |  | viability, T/C (compound 0.01 µM): 96.2% [middle of 5 runs]; viability, T/C (compound 0.1 µM): 82% [middle of 5 runs]; IC50 (curve of compound): > 3.16 µM and 0.735 µM
5 | CC(C)NCC(C(=O)N1CCN(c2ncnc3c2C(C)CC3O)CC1)c1ccc(Cl)cc1 (configuration not stated) + C=CC(=O)N1CCN(c2nc(=O)n(-c3c(C)ccnc3C(C)C)c3nc(-c4c(O)cccc4F)c(F)cc23)C(C)C1 | > 10 µM | > 10 µM | > 10 µM | 7.17 µM | > 10 µM | 109% | 128% | 91.3% | 74.2% | 73.6% | 70.5% | 89% | 71.7% | 101% | 80% | 77.3% | 63.1% | 106% | 102% | 93.8% | viability, T/C [21]: 76.9%; viability, T/C [22]: 81.1%; viability, T/C [23]: 60.7%; viability, T/C [24]: 125%; viability, T/C [25]: 103%; viability, T/C [26]: 67.4%; viability, T/C [27]: 66.5%; viability, T/C [28]: 59.3%; viability, T/C [29]: 57.5%; viability, T/C [30]: 75%; viability, T/C [31]: 79.1%; viability, T/C [32]: 58.9%; viability, T/C [33]: 66.8%; viability, T/C [34]: 85.5%; viability, T/C [35]: 64.4%
6 | CCNC(=O)CC1N=C(c2ccc(Cl)cc2)c2cc(OC)ccc2-n2c(C)nnc21 (configuration not stated) + C=CC(=O)N1CCN(c2nc(=O)n(-c3c(C)ccnc3C(C)C)c3nc(-c4c(O)cccc4F)c(F)cc23)C(C)C1 | > 10 µM | > 10 µM | > 10 µM | > 10 µM | > 10 µM | 102% | 86.5% | 78.5% | 76.6% | 62.6% | 65.4% | 111% | 92.8% | 72% | 81.5% | 69.7% | 79.3% | 87.5% | 101% | 72.7% | viability, T/C [21]: 63.3%; viability, T/C [22]: 81%; viability, T/C [23]: 71.5%; viability, T/C [24]: 84.4%; viability, T/C [25]: 87.1%; viability, T/C [26]: 108%; viability, T/C [27]: 49.4%; viability, T/C [28]: 83.2%; viability, T/C [29]: 69.3%; viability, T/C [30]: 79.6%; viability, T/C [31]: 63.3%; viability, T/C [32]: 66.2%; viability, T/C [33]: 61.3%; viability, T/C [34]: 74.7%; viability, T/C [35]: 54.2%
